Assays:
human Factor 11 mRNA [1] = assay: Antisense inhibition of human Factor 11 in HepG2 cells, lipofectin, 75 nM (Example 1); type: cell-based; details: 75 nM antisense oligonucleotide, ~24 h, relative to untreated control cells, gapmers targeted to SEQ ID NO: 1
How it was run: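 HepG2 cells transfected via lipofectin with 75 nM antisense oligonucleotide (5-10-5 MOE gapmers, 20-mers, phosphorothioate, 5-methylcytidines), treated ~24 h. Factor 11 mRNA quantified by real-time PCR, normalised to RIBOGREEN total RNA; percent inhibition versus untreated cells.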

human Factor 11 mRNA [2] = assay: Dose-dependent antisense inhibition of human Factor 11 in HepG2 cells, lipofectin 9.375-150 nM (Example 2); type: cell-based; details: ~16 h
Description: Cells were plated at a density of 10,000 cells per well and transfected using lipofectin reagent with 9.375 nM, 18.75 nM, 37.5 nM, 75 nM, and 150 nM concentrations of antisense oligonucleotide, as specified in Table 3. After a treatment period of approximately 16 hours, RNA was isolated from the cells and Factor 11 mRNA levels were measured by quantitative real-time PCR. Human Factor 11 primer probe set RTS 2966 (forward sequence: […], incorporated herein as SEQ ID NO: 3; reverse sequence: […], incorporated herein as SEQ ID NO: 4; probe sequence: TTGTCTACTGAAGCACACCCAAACAGGGAX, incorporated herein as SEQ ID NO: 5) was used to measure mRNA levels. Factor 11 mRNA levels were adjusted according to total RNA content, as measured by RIBOGREEN. Results are presented as percent inhibition of Factor 11, relative to untreated control cells.

human Factor 11 mRNA [3] = assay: Antisense inhibition of human Factor 11 in HepG2 cells, electroporation, 8,000 nM (Example 30); type: cell-based; details: electroporation, 8,000 nM antisense oligonucleotide
How it was run: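 HepG2 cells electroporated with 8,000 nM 5-10-5, 5-8-5 or 6-8-6 MOE gapmers (phosphorothioate, 5-methylcytidine), ~24 h. Factor 11 mRNA quantified by qRT-PCR, normalised to RIBOGREEN total RNA. Reported as percent inhibition versus untreated cells.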

[4] = design: species or system CD1 mice; details: mouse, in vivo, sc, 50 mg/kg
Description: The concentration of the full-length oligonucleotide was measured. The method used is a modification of previously published methods (Leeds et al., 1996; Geary et al., 1999) which consist of a phenol-chloroform (liquid-liquid) extraction followed by a solid phase extraction. An internal standard (ISIS 355868, a 27-mer 2′-O-methoxyethyl modified phosphorothioate oligonucleotide, […], designated herein as SEQ ID NO: 270) was added prior to extraction. […] The results are presented in Table 85 expressed as μg/g liver tissue.

[5] = design: species or system Sprague-Dawley rats; details: rat, in vivo, sc, 20 mg/kg
Description: The concentration of the full-length oligonucleotide as well as the total oligonucleotide concentration (including the degraded form) was measured. The method used is a modification of previously published methods (Leeds et al., 1996; Geary et al., 1999) which consist of a phenol-chloroform (liquid-liquid) extraction followed by a solid phase extraction. An internal standard (ISIS 355868, a 27-mer 2′-O-methoxyethyl modified phosphorothioate oligonucleotide, […], designated herein as SEQ ID NO: 270) was added prior to extraction. […] The results are presented in Tables 91 and 92, expressed as μg/g liver or kidney tissue. Half-lives were then calculated using WinNonlin software ([…]).

[6] = Viscosity of ISIS antisense oligonucleotides, micro-viscometer at 25 °C (Example 47); type: physicochemical; details: for Concentration: concentration of the viscosity sample, UV reading at 260 nM at 85° C.; for Viscosity: in water, micro-viscometer at 25° C., at the concentration of the same line
How it was run: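 Oligonucleotide (32-35 mg) was dissolved in 120 μL water by heating at 50° C, and viscosity was measured by micro-viscometer at 25° C. Concentration was checked by UV at 260 nm at 85° C on a dilution in water. Screening cut-off: >40 cP at 165-185 mg/mL.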

human Factor 11 mRNA [7] = assay: Antisense inhibition of human Factor 11 in HepG2 cells by microwalk gapmers, lipofectin, 75 nM (Example 3); type: cell-based; details: HepG2 cells, lipofectin, gapmers targeted to nucleobases 1275 to 1318 of SEQ ID NO: 1
How it was run: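 HepG2 cells (10,000/well) were transfected via lipofectin with 75 nM 20-mer MOE gapmers (phosphorothioate, 5-methyl-C) for about 24 h. Factor 11 mRNA was measured by qRT-PCR, normalized to RIBOGREEN total RNA, and given as percent inhibition versus untreated cells.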

human Factor 11 mRNA [8] = assay: Dose-dependent inhibition of human Factor 11 in HepG2 cells, electroporation 123.46-10,000 nM (Example 31); type: cell-based; details: for Percent inhibition of Factor 11 mRNA at 123.47 nM / Percent inhibition of Factor 11 mRNA at 370.37 nM / IC50: electroporation; for Percent inhibition of Factor 11 mRNA at 123.47 nM / Percent inhibition of Factor 11 mRNA at 370.37 nM / Percent inhibition of Factor 11 mRNA at 1,111.11 nM / Percent inhibition of Factor 11 mRNA at 3,333.33 nM / Percent inhibition of Factor 11 mRNA at 10,000.0 nM: approx. 16 hours, relative to untreated control cells; for Percent inhibition of Factor 11 mRNA at 1,111.11 nM: electroporation, 1,111.11 nM; for Percent inhibition of Factor 11 mRNA at 3,333.33 nM: electroporation, 3,333.33 nM; for Percent inhibition of Factor 11 mRNA at 10,000.0 nM: electroporation, 10,000.0 nM; for IC50: Factor 11 mRNA expression
Description: Cells were plated at a density of 20,000 cells per well and transfected using electroporation with 123.46 nM, 370.37 nM, 1,111.11 nM, 3,333.33 nM and 10,000 nM concentrations of antisense oligonucleotide, as specified in Table 45. After a treatment period of approximately 16 hours, RNA was isolated from the cells and Factor 11 mRNA levels were measured by quantitative real-time PCR. Human Factor 11 primer probe set RTS 2966 was used to measure mRNA levels. Factor 11 mRNA levels were adjusted according to total RNA content, as measured by RIBOGREEN. Results are presented as percent inhibition of Factor 11, relative to untreated control cells.

[9] = rat, in vivo, sc, 50 mg/kg
[10] = rat, in vivo, sc, 50 mg/kg; remark: listed apart in the source
[11] = rat, in vivo, sc, 50 mg/kg; remark: listed apart in the source

Row | Substance | Percent inhibition of human Factor 11 mRNA levels (human Factor 11 mRNA [3]) | Half-Life in the liver [4] | Half-life of ISIS oligonucleotides in the liver and kidney [5] | Concentration [6] | Viscosity [6] | % inhibition (human Factor 11 mRNA [7]) | Percent inhibition of Factor 11 mRNA at 123.47 nM (human Factor 11 mRNA [8]) | Percent inhibition of Factor 11 mRNA at 370.37 nM (human Factor 11 mRNA [8]) | Percent inhibition of Factor 11 mRNA at 1,111.11 nM (human Factor 11 mRNA [8]) | Percent inhibition of Factor 11 mRNA at 3,333.33 nM (human Factor 11 mRNA [8]) | Percent inhibition of Factor 11 mRNA at 10,000.0 nM (human Factor 11 mRNA [8]) | further results
1 | 413481 (antisense GGTGCACAGTTTCTGGCAGG; 5-10-5 MOE gapmer, further chemistry not given here) [compound 413481] | 82% | 20.6 days | 21 days | 144 mg/mL | 23 cP |  |  |  |  |  |  | % inhibition (human Factor 11 mRNA [1]): 86%; percent inhibition of Factor 11 at 9.375 nM (human Factor 11 mRNA [2]; 9.375 nM): 22%; percent inhibition of Factor 11 at 18.75 nM (human Factor 11 mRNA [2]; 18.75 nM): 38%; percent inhibition of Factor 11 at 37.5 nM (human Factor 11 mRNA [2]; 37.5 nM): 56%; percent inhibition of Factor 11 at 75 nM (human Factor 11 mRNA [2]; 75 nM): 67%; percent inhibition of Factor 11 at 150 nM (human Factor 11 mRNA [2]; 150 nM): 83%; IC50 (human Factor 11 mRNA [2]): 32 nM
2 | 416851 (antisense GTGCACAGTTTCTGGCAGGC; 5-10-5 gapmer, further chemistry not given here) [compound 416851] | 89% | 23.8 days | 24 days | 187 mg/mL | 26 cP | 88% | 13% | 35% | 36% | 64% | 72% | IC50 (human Factor 11 mRNA [8]): 1500 nM
3 | 416861 (antisense GCGGACGGCATTGGTGCACA; 5-10-5 gapmer, further chemistry not given here) [compound 416861] | 90% | 24.5 days | 25 days | 110 mg/mL | 14 cP | 92% | 0% | 15% | 27% | 66% | 80% | IC50 (human Factor 11 mRNA [8]): 2000 nM
4 | ISIS 416925: MOE gapmer, nucleobases 1275 to 1318 of SEQ ID NO: 1 (Table 8) (antisense GGTGCACAGTTTCTGGCAGG; MOE gapmer, wing and gap sizes not given here) |  |  |  |  |  |  |  |  |  |  |  | ALT [9]: 102 IU/L; AST [9]: 20 IU/L; Albumin [9]: 5; Bilirubin [9]: 13 mg/dL; BUN [10]: 7 mg/dL; Creatinine [10]: 5 mg/dL; HCT [11]: 8%; MCH [11]: 2; MCHC [11]: 4%; MCV [11]: 5; Platelets [11]: 8 10^3/μL; RBC [11]: 6; WBC [11]: 24 nL⁻¹; hemoglobin [11]: 6 g/dL; lymphocytes [11]: 4%; monocytes [11]: 23%; neutrophils [11]: 20%
5 | ISIS 417003: MOE gapmer, nucleobases 1275 to 1318 of SEQ ID NO: 1 (Table 8) (antisense TGGTGCACAGTTTCTGGCAG; MOE gapmer, wing and gap sizes not given here) |  |  |  |  |  |  |  |  |  |  |  | ALT [9]: 138 IU/L; AST [9]: 23 IU/L; Albumin [9]: 6; Bilirubin [9]: 50 mg/dL; BUN [10]: 9 mg/dL; Creatinine [10]: 9 mg/dL; HCT [11]: 8%; MCH [11]: 4; MCHC [11]: 4%; MCV [11]: 6; Platelets [11]: 19 10^3/μL; RBC [11]: 11; WBC [11]: 83 nL⁻¹; hemoglobin [11]: 11 g/dL; lymphocytes [11]: 3%; monocytes [11]: 6%; neutrophils [11]: 17%
6 | 416860 (antisense CGGACGGCATTGGTGCACAG; 5-10-5 gapmer, further chemistry not given here) [compound 416860] | 89% | 20.6 days | 21 days | 154 mg/mL | >100 cP | 88% | 0% | 28% | 39% | 41% | 40% | 
7 | 416848 (antisense CACAGTTTCTGGCAGGCCTC; 5-10-5 gapmer, further chemistry not given here) [compound 416848] | 87% | 23.5 days | 24 days | 158 mg/mL | 6 cP | 86% |  |  |  |  |  | 
8 | 416852 (antisense TGGTGCACAGTTTCTGGCAG; 5-10-5 gapmer, further chemistry not given here) [compound 416852] | 87% | 28.4 days | 28 days | 169 mg/mL | 29 cP | 84% |  |  |  |  |  | 
